Measured values: paper PMC9078534 (RSC Advances, 2018)
Counter-ions that a name gives are not always drawn. Like-named read-outs stand apart in the source and are kept apart here.

Tests used:
[1] = system: CBG; set-up: method as in doi:10.1021/symposium; settings: other phenolic glycosides; cited from earlier work
[2] = Renal clearance (CLr) of SAL and PAH in hypoxic and normoxic rats; type: in vivo; settings: rat, plasma and urine, iv
Method: The animal surgery was conducted as described in literature.[23,24] Briefly, the cannulae were inserted into rat right jugular veins, left femoral veins, and bladders after an i.m. injection of 90 mg kg^−1 ketamine and 9 mg kg^−1 xylazine. All surgical procedures were performed under anaesthesia and in a clean surgical room with sterilized instruments. […] Urine from the bladder was collected through the catheter into pre-weighed micro-centrifuge tubes and the volume of urine collected during each 30 min period was calculated by weight. To equilibrate and establish a steady rate of urine excretion, rats were continuously infused with warm saline solution containing mannitol (5%, w/v) for 1 h at a rate of 16 μl min^−1 through the femoral veins (n = 5 each group) using a Sage Instruments Syringe Pump (Cambridge, MA, USA). During the experiment, the rat was placed on a heating pad to maintain body temperature. […] After each blood sampling, an aliquot of 200 μl saline was infused into the jugular to replace the volume of blood taken.

[3] = cited from earlier work
[4] = system: SULT2A1; assay: Kinetics of p-tyrosol sulfate formation from p-tyrosol in rat liver S9 fraction (RLS), sulfation by SULT2A1; type: in vitro ADME
Method: The formation rate of p-tyrosol sulfate could therefore serve as an indicator for the hepatic metabolic rate of SAL. […] The incubation was carried out at 37 °C and terminated by the addition of an equal volume of ice-cold methanol containing 5 μM IS.[18] The content of p-tyrosol sulfate was determined by the UPLC-MS/MS described above. […] All the experiments were carried out in triplicate.
GraphPad Prism® was employed to analyze enzyme kinetic data.

[5] = male, SD, rat, in vivo
Description: (§4) Briefly, rats were exposed to hypoxic condition (oxygen content of 9%) for 3 consecutive days to construct the model. Normoxic controls were kept in room air (21% O2) for 3 consecutive days. The concentrations of LDH, CS, and HIF-1α in rat plasma were monitored with the aid of commercial kit listed in ‘Material’ section for model validation.
(§5) Twenty male SD rats were randomly divided into hypoxic group (HYP) and normoxic group (NOR) with ten rats in each group. Following hypoxic and normoxic model construction, rats were prepared for surgery. […] Briefly, rats were anesthetized with an intramuscular dose of ketamine (90 mg kg^−1) and xylazine (9 mg kg^−1) followed by cannulation with a polythene tube (0.5 mm i.d., 1 mm, Portex Ltd., Hythe, Kent, England) in the right jugular vein. The rats were allowed to recover overnight and had free access to water and food. […] The blood samples (200 μl) were taken from the jugular vein catheter and were collected into the heparinized tubes at the following time points: 0, 5, 10, 30, 60, 120, 240, 360, 480, 720 and 1440 min after oral administration and 0, 2, 5, 10, 30, 60, 120, 240, 360, 480 min after intravenous administration, respectively. An aliquot of 200 μl sterile isotonic saline was given immediately to rats after blood sample collection for compensation of body fluid loss. The animals were sacrificed with pentobarbital sodium salt (200 mg kg^−1, i.p.) at the end of the experiment. The obtained blood samples were centrifuged at 11 300g for 5 min at 4 °C and the plasma samples (supernatant) was collected for UPLC-MS/MS analyses. Protein precipitation was adopted for samples preparation.
(§6) Pharmacokinetic parameters including the area under the curve (AUC) and elimination half-life (t1/2) were calculated by non-compartmental model. The peak plasma concentration (Cmax) and the time for reaching Cmax (Tmax) were obtained directly from the experimental data.

[6] = Protein binding of SAL in rat plasma by ultrafiltration; type: in vitro ADME; settings: three spiking concentrations (100, 500, 1000 μg ml^−1), 37 °C, 30 min
Method: After incubation at 37 °C for 30 min, an aliquot of 500 μl plasma was added into the upper part of the centrifugal filter device (Amicon®, cutoff value: 10 kDa). The centrifuge was then conducted in a rate of 11 300g for 30 min at room temperature. SAL in the original sample and ultrafiltrate were determined by UPLC-MS/MS method.

[7] = Stability of SAL in samples during UPLC-MS/MS method validation; type: physicochemical
Method: To prepare the samples for calibration curves, 10 μl of IS working solution (containing 100 μg ml^−1 paracetamol) and 10 μl of analyte work solution was added to 100 μl of blank rat plasma. Approximately 300 μl methanol was then added to the above plasma sample for protein precipitation. After centrifuging the mixture at 11 300g for 10 min, the supernatant was collected followed by being evaporated to dryness under nitrogen at room temperature. The residue was reconstituted with 100 μl of methanol. After being centrifuged at 11 300g for 10 min, an aliquot of 5 μl supernatant was injected into the UPLC-MS/MS system for analyses. […] For all QC samples in rat biological matrices, the % RSD of both intra-day and inter-day precision was below 10.4%, and the accuracy was within the range of 85.4 to 100%, which met the criteria from FDA.

[8] = in vivo; settings: male, SD, rat
Description: as §4, §5, §6

[9] = Transport of SAL across normoxic and hypoxic Caco-2 monolayers (Papp); type: in vitro ADME, human; settings: human, SAL 10 μM
Method: (§1) The human colorectal adenocarcinoma cell line, Caco-2 cell, was obtained from Cell Resource Center, Institute of Basic Medical Sciences (CAMS). Caco-2 cells, a recognized cell model used for permeability study, were cultured in minimum essential medium (MEM) containing 10% fetal bovine serum, 1% nonessential amino acids, 100 U ml^−1 penicillin, and 100 μg ml^−1 streptomycin, and then were kept in a humidified incubator at 37 °C with 5% CO2. To obtain differentiated monolayers, Caco-2 cells were seeded in Transwell® chambers (12 mm, 0.4 μm pore size; Corning, MA, USA) at a density of 1 × 10^5 cells per wells and cultured for 21 days. TEER (trans-epithelial electrical resistance) was used to monitor the integrity of the monolayer. Monolayer with TEER above 600 Ω cm^2 was employed in the present study. Caco-2 cells grown in Transwell® at passage 32–45 were used for the experiment. After cultivation for 21 days, normoxic incubations were performed in a tissue culture incubator at 37 °C, 5% CO2, while hypoxic incubations were performed in an oxygen-control hypoxic glove box at 37 °C, 1% oxygen content for 24 h.[15] The enzyme activities of LDH, CS and the protein expression of HIF-1α were monitored for hypoxic model validation. The morphological study on hypoxic Caco-2 monolayer was performed with the aid of transmission electron microscopy (TEM) (JEM-2100F, Japan). The expression level of tight junction proteins (ZO-1) in Caco-2 cell under normoxic and hypoxic conditions was measured by western blotting.
(§2) According to the method published in Nature Protocols, the transport test was performed in Hank's balanced salt solution (HBSS) containing 5.56 mM glucose, 10 mM HEPES and 1.26 mM CaCl2.[16] Before experiment, the monolayers were washed twice with HBSS medium and pre-incubated for 30 min. […] Equal volume of the blank HBSS buffer was added back to the chambers after sampling to maintain a constant systemic volume. The collected samples were stored at −20 °C until UPLC-MS/MS analyses.
(§3) The Caco-2 monolayer was pre-incubated with phlorizin (100 μM) for 30 min before the transport experiment.

[10] = system: Caco-2 monolayers; assay: as above; type: in vitro ADME, human
Method: as §1, §2, §3

[11] = substrate: OC[C@H]1O[C@@H](OCCc2ccc(O)cc2)[C@H](O)[C@@H](O)[C@@H]1O; assay: cells, lysate or membranes named; settings: pH 7.4, 37.0 °C
[12] = background statement, no reference given
[13] = Caco-2, hypoxic Caco-2 monolayer model (1% O2, 24 h)
[14] = Caco-2, normoxic Caco-2 monolayer model

quercetin 4-glycoside
Km [1]: 65 µM

daidzein 4-glycoside
Km [1]: 50 µM

Nc1ccc(C(=O)NCC(=O)O)cc1 [PAH, p-aminohippuric acid, reference compound]
CL renal ([2]; 30 mg/kg, hypoxic rats, PAH 30 mg kg^−1 i.v. bolus): 0.818 mL/min/kg | CL renal ([2]; 30 mg/kg, normoxic rats, PAH 30 mg kg^−1 i.v. bolus): 3.28 mL/min/kg

O=S(=O)(O)Oc1ccc(CCO)cc1 [p-Tyrosol sulfate, p-tyrosol sulfate]
share of total metabolites of SAL ([3]; rats, systemic circulation): over 50%

OCCc1ccc(O)cc1 [p-tyrosol]
Clint of SULT2A1 ([4]; hypoxic RLS): 10.4 ± 2.7 µL/min/mg | Vmax of SULT2A1 (p-tyrosol sulfate formation from p-tyrosol) ([4]; hypoxic RLS): 78.3 ± 11.2 nmol/min/mg | Clint of SULT2A1 ([4]; normoxic RLS): 5.8 ± 1.2 µL/min/mg | Vmax of SULT2A1 (p-tyrosol sulfate formation from p-tyrosol) ([4]; normoxic RLS): 23.3 ± 4.4 nmol/min/mg

OC[C@H]1O[C@@H](OCCc2ccc(O)cc2)[C@H](O)[C@@H](O)[C@@H]1O [SAL, salidroside]
CL renal ([2]; 444 ug/kg, hypoxic rats, SAL 444 μg kg^−1 i.v. bolus): 0.497 mL/min/kg | CL renal ([2]; 444 ug/kg, normoxic rats, SAL 444 μg kg^−1 i.v. bolus): 1.77 mL/min/kg | MRT(0→t) ([5]; iv, 444 ug/kg): 70.9 ± 7.9 min | t1/2 ([5]; iv, 444 ug/kg): 97.5 ± 12.5 min | Cmax ([5]; po, 4.44 mg/kg): 1835.4 ± 690.5 ng/mL | Tmax ([5]; po, 4.44 mg/kg): 48.0 ± 16.4 min | plasma binding ratio, hypoxic versus normoxic rats [6]: similar | share of parent compound that undergoes deglycosylation and sulfation ([3]; after oral administration to rats, literature and preliminary studies): more than 50% | share of administered SAL excreted from urine as parent compound [3, 12]: about 20% | share of eliminated SAL accounted for by renal clearance [3, 12]: no more than 20% | stability ([7]; auto-sampler (4 °C) for 24 h): stable | stability ([7]; −80 °C for 30 days): stable | MRT last ([8]; iv, 444 ug/kg, MRT(0→t)): 48.3 min | half-life ([8]; iv, 444 ug/kg, t1/2): 67.2 ± 11.8 min | Cmax ([8]; po, 4.44 mg/kg, Cmax): 2070 ± 264 ng/mL | Tmax ([8]; po, 4.44 mg/kg, Tmax): 36 min | Papp A→B at 180 min, 10 μM [9, 13]: 1.77 ± 0.18 ×10⁻⁶ cm/s | Papp B→A at 180 min, 10 μM [9, 13]: 0.7 ± 0.2 ×10⁻⁶ cm/s | Papp A→B at 180 min, 10 μM [9, 14]: 0.88 ± 0.11 ×10⁻⁶ cm/s | Papp B→A at 180 min, 10 μM [9, 14]: 0.088 ± 0.02 ×10⁻⁶ cm/s | ratio between Papp(A→B) and Papp(B→A) ([10]; hypoxic Caco-2 monolayer model): 2.53 | ratio between Papp(A→B) and Papp(B→A) ([10]; normoxic Caco-2 monolayer model): 10.0 | ratio between Papp(A→B) and Papp(B→A) ([10]; normoxic Caco-2 monolayer model, after addition of SGLT1 inhibitor (phlorizin 100 μM)): 2.24

B1: cytosolic β-glucosidase (CBG) (Rattus norvegicus) (protein)
chain: MAFPVGFGWGAATAAYQVEGGWDADGRGPCVWDTFTHQGGERVFENQTGDVACGSYTLWEEDLKCIKQLGLTHYRFSLSWSRLLPDGTTGFINQKGIDYYNKIIDDLLKNGVTPIVAIYHFDLPQALEDLGGWLSEAIVEAFDKYAQFCFSTFGDRVKQWLTINEPNILALLAYDMGIFAPGVPHIGIGGYQAAHNLIKAHARSWHSYDSLFREEQKGFVSLSLFFCWLEPADPNSEIDQEATKRAINFHLDFFAKPIFIDGDYPDVVKSQVASMSKKQGYPSSRLPEFTEEEKKMIKGTADFFAVQYYTTRLVRHQENKKRELGFLQDVEIEFFPNPFWKNVGWIYVVPWGIRKLLKYIKDTYNNPVIYITENGFPQCDPPSLDDTQRWEYFRQTFQELFKAIHVDDVNLQLYCAWSLLDNFEWNNGYSRRFGLFHVDFEDPARPRTPYRSAKEYAKVIRDNGLAGAM
Km ([11]; other: hypoxic RLS): 19.5 ± 3.1 µM | Km ([11]; other: normoxic RLS): 5.2 ± 0.6 µM
